From patent publication US20210147481A1, “PEPTIDE-BASED INHIBITORS OF MARK FAMILY PROTEINS” (Ohio Universtiy, priority 2017, published 2021)
Like-named read-outs stand apart in the source and are kept apart here. Peptide text beside a SMILES is read from it. * marks the point of attachment. 5FAM = O=C1OC2(c3ccc(O)cc3Oc3cc(O)ccc32)c2ccc(C(=O)*)cc21

Columns and labels:
MARK2 [1] = molecular target: MARK2 (Rattus norvegicus, UniProt O08679); assay: Immunofluorescence of PAO-induced MARK2-mediated tau Ser262 phosphorylation in neurons; type: cell-based
MARK2 [2] = molecular target: MARK2 (Homo sapiens, UniProt Q7KZI7); assay: Antibody-linked fluorescence polarization assay of tR1 phosphorylation by MARK2; type: biochemical; details: 10 μM FlutR1, MARK2, ATP, antibody versus absence of MARK2, ATP, or antibody
Description: The ability for MARK2 to phosphorylate tR1 in vitro was further validated by incubating ^FlutR1 peptides with MARK2 and ATP and monitoring the fluorescence polarization of the solution following addition of antibodies specific for hTau pSer262 (FIG. 6C). In these experiments, ^FlutR1 peptides and MARK2 were incubated with and without ATP for 60 minutes at 32° C. in phosphorylation buffer. Following incubation, antibodies specific for hTau pSer262 were added to the reaction and allowed to incubate for an additional 60 minutes at room temperature. Due to the slower tumbling rate of an antibody-linked (and presumably phosphorylated) ^FlutR1 peptide, it is believed that the fluorescence polarization of the phosphorylated tR1 peptide would be higher than that of its un-phosphorylated counterpart.
Analysis of the activity of MARK2 proteins was performed in 60-μL phosphorylation buffer (50 mM Tris-HCl, pH 8.0, 5 mM MgCl2, 2 mM EGTA, 0.5 mM DTT, 0.5 mM benzamidine HCl, 0.5 mM PMSF) containing 100 μM ATP, 10 μM of ^FlutR1, and 10 nM MARK2. The reaction mixture was incubated at 32° C. for 1 hour. […] Fluorescence polarization was then measured using a SpectraMax M5e multi-mode plate reader (Molecular Devices, Sunnyvale, Calif.) in 384-well plates (#3575, Corning, Corning, N.Y.). […]

[3] = system: rat primary cortical neurons

Sequence of MARK2 (Rattus norvegicus, UniProt O08679) (O08679 whole entry): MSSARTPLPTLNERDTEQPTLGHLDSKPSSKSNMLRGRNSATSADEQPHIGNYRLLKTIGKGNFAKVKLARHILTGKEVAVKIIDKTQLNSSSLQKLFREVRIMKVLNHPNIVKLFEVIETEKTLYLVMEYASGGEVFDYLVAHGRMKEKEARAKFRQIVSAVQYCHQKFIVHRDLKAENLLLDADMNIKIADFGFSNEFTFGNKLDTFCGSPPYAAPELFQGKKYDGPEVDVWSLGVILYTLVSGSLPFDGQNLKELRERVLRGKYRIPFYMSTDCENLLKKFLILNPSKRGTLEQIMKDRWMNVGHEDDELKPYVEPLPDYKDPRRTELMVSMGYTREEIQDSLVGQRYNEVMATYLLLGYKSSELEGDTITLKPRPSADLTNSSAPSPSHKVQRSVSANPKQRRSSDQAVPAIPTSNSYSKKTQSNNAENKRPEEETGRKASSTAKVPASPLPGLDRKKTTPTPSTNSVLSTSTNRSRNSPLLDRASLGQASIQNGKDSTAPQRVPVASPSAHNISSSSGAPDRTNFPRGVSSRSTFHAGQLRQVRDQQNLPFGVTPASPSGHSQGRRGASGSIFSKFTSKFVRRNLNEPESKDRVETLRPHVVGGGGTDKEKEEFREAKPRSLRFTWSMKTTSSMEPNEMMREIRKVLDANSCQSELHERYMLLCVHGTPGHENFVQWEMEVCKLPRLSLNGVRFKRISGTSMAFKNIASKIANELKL
Sequence of MARK2 (Homo sapiens, UniProt Q7KZI7) (Q7KZI7 whole entry): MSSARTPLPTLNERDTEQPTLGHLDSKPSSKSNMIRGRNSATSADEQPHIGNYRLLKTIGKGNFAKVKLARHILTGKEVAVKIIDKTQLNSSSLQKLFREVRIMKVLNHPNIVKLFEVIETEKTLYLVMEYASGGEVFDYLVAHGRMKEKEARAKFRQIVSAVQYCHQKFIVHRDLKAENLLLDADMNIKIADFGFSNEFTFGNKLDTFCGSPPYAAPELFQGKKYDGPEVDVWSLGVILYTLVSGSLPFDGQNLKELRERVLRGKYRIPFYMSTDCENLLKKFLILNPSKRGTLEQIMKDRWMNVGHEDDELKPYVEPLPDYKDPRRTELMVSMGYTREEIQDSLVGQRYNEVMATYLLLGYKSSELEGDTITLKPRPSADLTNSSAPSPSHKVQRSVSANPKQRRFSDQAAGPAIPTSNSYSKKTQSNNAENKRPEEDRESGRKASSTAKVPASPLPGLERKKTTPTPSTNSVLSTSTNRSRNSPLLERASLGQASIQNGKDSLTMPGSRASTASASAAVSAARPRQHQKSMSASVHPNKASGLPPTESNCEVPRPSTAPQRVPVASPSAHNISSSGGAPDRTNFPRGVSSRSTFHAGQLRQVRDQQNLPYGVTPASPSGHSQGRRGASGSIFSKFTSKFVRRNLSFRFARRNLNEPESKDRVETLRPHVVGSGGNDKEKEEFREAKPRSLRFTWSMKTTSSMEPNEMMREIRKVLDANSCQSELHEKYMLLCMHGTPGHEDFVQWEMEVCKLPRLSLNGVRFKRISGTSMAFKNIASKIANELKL

For CCN(CC)CCCC(C)Nc1ccnc2cc(Cl)ccc12 (centres unmarked) [chloroquine, reference compound], the “effect of endosome disruptor alone on PAO-induced MARK2 mediated phosphorylation of tau” value (MARK2 [1]) was “Neither bafilomycin A1 nor chloroquine treatments alone affected”.

For CO/C1=C\C(C)=C\[C@@H](C)[C@@H](O)[C@@H](C)C/C(C)=C/C=C/[C@H](OC)[C@@H]([C@@H](C)[C@@H](O)[C@H](C)[C@@]2(O)C[C@@H](O)[C@H](C)[C@@H](C(C)C)O2)OC1=O [bafilomycin A1, reference compound], the “effect of endosome disruptor alone on PAO-induced MARK2 mediated phosphorylation of tau” value (MARK2 [1]; without tR1, 5 μM PAO) was “Neither bafilomycin A1 nor chloroquine treatments alone affected”.

With CC[C@H](C)[C@H](NC(=O)[C@H](CCCCN)NC(=O)[C@H](CO)NC(=O)[C@H](CCCCN)NC(=O)[C@@H](NC(=O)[C@H](CC(N)=O)NC(=O)c1ccc2c(c1)C(=O)OC21c2ccc(O)cc2Oc2cc(O)ccc21)C(C)C)C(=O)NCC(=O)N[C@@H](CO)C(=O)N[C@H](C(=O)N[C@@H](CCC(=O)O)C(=O)N[C@@H](CC(N)=O)C(=O)N[C@@H](CC(C)C)C(=O)N[C@@H](CCCCN)C(N)=O)[C@@H](C)O [^FlutR1] (5FAM-NVKSKIGSTENLK-NH2) the “fluorescence polarization after addition of hTau pSer262 antibody” value (MARK2 [2]) was “polarization to be highest in solutions containing all reaction components”, the “intracellular uptake (fluorescence)” value ([3]; 10 μM FlutR1 alone, 4 hours) was “distinct fluorescent puncta within the cell body and neurites” and the “intracellular distribution (fluorescence)” value ([3]; 10 μM FlutR1 with 50 nM Baf) was “no fluorescent puncta following treatment and diffuse green fluorescence within the cell soma”. The “intracellular uptake (fluorescence)” value ([3]; 10 μM FlutR1 with 5 μM PAO) was “did not seem to affect the uptake”, the “intracellular distribution (fluorescence)” value ([3]; 10 μM FlutR1 with 100 μM CLQ) was “significant loss of discrete fluorescent puncta” and the “intracellular uptake (fluorescence)” value ([3]; 10 μM FlutR1 with 10 mM sodium azide) was “significant loss of fluorescent puncta within the cell body and neurites”.
